In ChEMBL document CHEMBL5543164 (J Med Chem, 2024):

Legend:
[1] = test system: MCF7; experiment: Induction of apoptosis in human MCF7 cells assessed as early apoptotic cells at 2.5 uM incubated for 24 hrs Annexin FITC/PI staining based flow cytometry analysis (reference value: 0.87%); assay type: functional
[2] = test system: MCF7; experiment: Induction of apoptosis in human MCF7 cells assessed as late apoptotic cells at 2.5 uM incubated for 24 hrs Annexin FITC/PI staining based flow cytometry analysis (reference value: 5.84%); assay type: functional
[3] = test system: MCF7; experiment: Induction of apoptosis in human MCF7 cells assessed as necrotic cells at 2.5 uM incubated for 24 hrs Annexin FITC/PI staining based flow cytometry analysis (reference value: 1.33%); assay type: functional
[4] = test system: MCF7; experiment: Induction of apoptosis in human MCF7 cells assessed as early apoptotic cells at 5 uM incubated for 24 hrs Annexin FITC/PI staining based flow cytometry analysis (reference value: 0.87%); assay type: functional
[5] = test system: MCF7; experiment: Induction of apoptosis in human MCF7 cells assessed as late apoptotic cells at 5 uM incubated for 24 hrs Annexin FITC/PI staining based flow cytometry analysis (reference value: 5.84%); assay type: functional
[6] = test system: MCF7; experiment: Induction of apoptosis in human MCF7 cells assessed as necrotic cells at 5 uM incubated for 24 hrs Annexin FITC/PI staining based flow cytometry analysis (reference value: 1.33%); assay type: functional
[7] = test system: MCF7; experiment: Induction of apoptosis in human MCF7 cells assessed as early apoptotic cells at 10 uM incubated for 24 hrs Annexin FITC/PI staining based flow cytometry analysis (reference value: 0.87%); assay type: functional
[8] = test system: MCF7; experiment: Induction of apoptosis in human MCF7 cells assessed as late apoptotic cells at 10 uM incubated for 24 hrs Annexin FITC/PI staining based flow cytometry analysis (reference value: 5.84%); assay type: functional
[9] = test system: MCF7; experiment: Induction of apoptosis in human MCF7 cells assessed as necrotic cells at 10 uM incubated for 24 hrs Annexin FITC/PI staining based flow cytometry analysis (reference value: 1.33%); assay type: functional
[10] = test system: MCF7; experiment: Antitumor activity against human MCF7 cells xenografted in BALB/c mouse assessed as tumor size at 20 mg/kg, iv measured every 2 days for 19 days (reference value: 1178 +/- 246mm3); assay type: functional; details: time 19 day
[11] = test system: MCF7; experiment: Antitumor activity against human MCF7 cells xenografted in BALB/c mouse assessed as tumor size at 20 mg/kg, iv administered as lipodisc encapsulated form measured every 2 days for 19 days (reference value: 1178 +/- 246mm3); assay type: functional; details: time 19 day
[12] = test system: MCF7; experiment: Antitumor activity against human MCF7 cells xenografted in BALB/c mouse assessed as tumor growth inhibition at 20 mg/kg, iv measured every 2 days for 19 days; assay type: functional; details: MCF7, 456 h, time 19 day, read-out: TGI
[13] = test system: MCF7; experiment: Antitumor activity against human MCF7 cells xenografted in BALB/c mouse assessed as tumor growth inhibition at 20 mg/kg, iv administered as lipodisc encapsulated form measured every 2 days for 19 days; assay type: functional; details: MCF7, 456 h, time 19 day, read-out: TGI
[14] = test system: MCF7; details: dose 20 mg/kg; route iv; time 19 day
[15] = test system: MCF7; details: dose 20 mg/kg; route iv; time 19 day; remark: listed apart in the source
[16] = test system: MCF7; experiment: cells; details: Homo sapiens, MCF7, 24 h, read-out: Activity
[17] = test system: MCF7; experiment: cells; details: Homo sapiens, MCF7, 24 h, read-out: Activity; remark: listed apart in the source
[18] = test system: MCF7; experiment: cells; details: Homo sapiens, MCF7, 24 h, read-out: Activity; remark: listed apart in the source
[19] = in vivo; details: BALB/c, mouse, iv, 5 mg/kg
[20] = in vivo; details: BALB/c, mouse, iv, 5 mg/kg; remark: listed apart in the source
[21] = in vivo; details: BALB/c, mouse, iv, 5 mg/kg; remark: listed apart in the source
[22] = in vivo; details: BALB/c, mouse, iv, 5 mg/kg; remark: listed apart in the source
[23] = in vivo; details: BALB/c, mouse, iv, 5 mg/kg; remark: listed apart in the source
[24] = in vivo; details: BALB/c, mouse, iv, 5 mg/kg; remark: listed apart in the source
[25] = in vivo; details: BALB/c, mouse, iv, 5 mg/kg; remark: listed apart in the source
[26] = in vivo; details: BALB/c, mouse, iv, 5 mg/kg; remark: listed apart in the source
[27] = in vivo; details: BALB/c, mouse, iv
[28] = in vivo; details: BALB/c, mouse, iv; remark: listed apart in the source

## CN(C)C1CCN(C(=O)c2ccc(NC(=O)Nc3ccc(-c4nc(N5CCOCC5)nc(N5CCOCC5)n4)cc3)cc2)CC1 [GEDATOLISIB]
[1]
  Activity: 0.68%
[2]
  Activity: 7.35%
[3]
  Activity: 1.59%
[4]
  Activity: 0.64%
[5]
  Activity: 8.41%
[6]
  Activity: 1.95%
[7]
  Activity: 0.82%
[8]
  Activity: 11.9%
[9]
  Activity: 1.77%
[10]
  Activity: 591 mm3
[11]
  Activity: 559 mm3
[12]
  inhibition in vivo at 20 mg/kg: 53.3%
[13]
  inhibition in vivo at 20 mg/kg: 55.9%
[14]
  T/C: 46.7%
[15]
  T/C: 44.1%
[16]
  viability at 2.5 µM: 90.4%
[17]
  viability at 5 µM: 89%
[18]
  viability at 10 µM: 85.5%
[19]
  AUC(0-t) at 12 h: 5280 ng·h/mL
[20]
  AUC(0-t) at 12 h: 31500 ng·h/mL
[21]
  AUC(0-inf) at 12 h: 5640 ng·h/mL
[22]
  AUC(0-inf) at 12 h: 32100 ng·h/mL
[23]
  half-life at 12 h: 1.3 h
[24]
  half-life at 12 h: 7.4 h
[25]
  Cmax at 12 h: 10700 ng/mL
[26]
  Cmax at 12 h: 44000 ng/mL
[27]
  MTD at […]: 20 mg/kg
[28]
  MTD at […]: 30 mg/kg
